Test: Rat pharmacokinetics, single intramuscular injection
Format: in vivo, Male Wistar Han rats
Settings: single IM dose 20 mg/kg, suspension 10 mg/mL; EFdA in blood, FIG. 2 and 3
Method: The pharmacokinetics of Compounds 6 and 21 after a single intramuscular (IM) injection were evaluated in Male Wistar Han rats. The test compound was suspended in a 2% P407, 2% PEG3350, 3.5% Mannitol formulation at 10 mg/mL concentration. A single dose of 20 mg/kg of test compound was injected (2 mL/kg) IM into the right gastrocnemius muscle (n=3). Blood samples were collected via a lateral tail vein at the following time points: Day 1 [30 min, 1 h, 3 h, 5 h, 7 h], Days 2-5, Days 7, 10, 14, 17, 21, 24, 28, 31, 35, 38, 42, 45, 49, 52, 56, 59, 63, 66 and 70, etc. To evaluate test compound and EFdA concentrations, approximately 150 μL of blood was collected into a NaFL/Na2EDTA tube. Exactly 150 μL of blood was then pipetted into a new tube, mixed with 150 μL of 100 mM ammonium acetate pH4, (some of the prodrugs required mixing with 1.5 μL of FA as stabilizer), vortexed, immediately frozen on dry ice and stored at −80° C. until analysis. […] The supernatants were then analyzed by UPLC/MS-MS (Triple Quad™ 6500+). Pharmacokinetic parameters were evaluated using a non-compartmental model of the non-compartmental analysis tool, Pharsight Phoenix WinNonlin® 6.4 software.

C#C[C@]1(CO)O[C@@H](n2cnc3c(N)nc(F)nc32)C[C@@H]1OC(=O)CC(C)(C)c1c(C)cc(C)cc1OC(C)=O [Example 21, (2R,3S,5R)-5-(6-amino-2-fluoro-9H-purin-9-yl)-2-ethynyl-2-(hydroxymethyl)tetrahydrofuran-3-yl 3-(2-acetoxy-4,6-dimethylphenyl)-3-methylbutanoate]
sustained exposure to EFdA out to: does not afford a sustained release profile

Reference: patent US20220117993A1, “Compounds Useful in HIV Therapy” (GlaxoSmithKline Intellectual Property (No. 2) Limited, priority 2018, published 2022)
